The values that follow are results of earlier work, collected in patent US20050070524A1, “Compositions of a cyclooxygenase-2 selective inhibitor and an anticonvulsant agent for the treatment of central nervous system disorders” (Pharmacia Corporation, priority 2003, published 2005).

Data set [1] relates to high-voltage-activated Ca^2+ currents. Conditions: rat cortical neurons.
The test system of data set [2] is high-voltage-activated Ca^2+ channels. Particulars: isolated CA1 hippocampal neurons of rats.

Regarding `Nc1nnc(-c2cccc(Cl)c2Cl)c(N)n1` [lamotrigine], in data set [1], the “inhibition of high-voltage-activated Ca^2+ currents” value was “large dose-dependent inhibition”.
On to `CC[C@@H](C(N)=O)N1CCCC1=O` [levetiracetam], for which the “inhibition of high-voltage-activated Ca^2+ channels” value in data set [2] was “directly and irreversibly inhibited”.
